According to US7737185B2 (Repros Therapeutics Inc., priority 2001, dated 2010):

Key:
total serum testosterone = assay: Serum testosterone in male baboons given Clomid, Enclomid or Zuclomid; type: in vivo; details: for Effect on total serum testosterone: 1.5 mg/kg for 12 days, male baboons
Text: (§1) The samples analyzed were sera taken on the day of first treatment before being given test article (day 0), after 12 days of treatment (day 12) and 7 days after the last treatment (end or wash-out).

[1] = following a single dose; cited from earlier work
serum cholesterol = assay: Serum cholesterol in male baboons; type: in vivo; details: 1.5 mg/kg for 12 days
Text: as §1

FSH, LH, testosterone = details: cited from earlier work
triglycerides = assay: Placebo controlled challenge study Androxal vs Androgel: triglycerides; type: in vivo, human; details: after two weeks of therapy, non-dose dependent; placebo 5.9% reduction
Experimental: (§2) Androgel® (Solvay Pharmaceuticals, Inc.) consists of a cream that administers exogenous testosterone in a transdermal matrix.
(§3) The study enrolled 62 hypogonadal men with testosterone levels less than 300 ng/dl (normal 298-1034 ng/dl) that were randomized into 6 different arms, three doses of Androxal™ (12.5 mg, 25 mg, and 50 mg), placebo, and both high and low doses of Androgel®. Half of the men in each of the Androxal™ and placebo arms were randomized into cohorts that underwent in-clinic sessions on days 1 and 14 to determine pharmacokinetic parameters for Androxal™ as well as cyclical changes in testosterone. The placebo and Androxal™ doses were administered in a double blind fashion. The Androgel® cream was administered in an open label fashion. Half of the Androgel® patients underwent in-clinic sessions similar to the other patients in the study. Following the two week drug exposure patients were followed for an additional seven to ten days to determine the status of their testosterone levels.

serum LH, FSH, PRL = assay: Serum LH, FSH and prolactin in male baboons; type: in vivo; details: during the study
Text: as §1

[2] = Placebo controlled challenge study Androxal vs Androgel: side effects; type: in vivo, human; details: hypogonadal men, two week exposure
Experimental: as §2, §3

serum LH, FSH = assay: Placebo controlled challenge study Androxal vs Androgel: serum LH and FSH; type: in vivo, human
Experimental: as §2, §3

total testosterone = assay: Placebo controlled challenge study Androxal vs Androgel: total testosterone; type: in vivo, human; details: for Mean increase in testosterone from baseline: hypogonadal men, two weeks
Experimental: as §2, §3

For `CCN(CC)CCOc1ccc(/C(=C(/Cl)c2ccccc2)c2ccccc2)cc1` [Zuclomid, cis-clomiphene, reference compound], the “Effect on total serum testosterone” value (total serum testosterone) is given as “did not raise total serum testosterone to any extent”, the Residual blood levels [1] is given as “in excess of one month” and the “Increase in serum cholesterol levels” value (serum cholesterol) is given as 22%. The Hematocrit (male baboons) was “demonstrated a statistical difference” and the “Red blood cell population” value (male baboons) was “substantive effects”.
In the case of `CCN(CC)CCOc1ccc(C(=C(Cl)c2ccccc2)c2ccccc2)cc1` [Clomid, clomiphene], the “Variability of total testosterone levels (coefficients of variation)” value (total serum testosterone; day 6 and later, compared to animals receiving Enclomid) is listed as “more variable total testosterone levels”, the “FSH, LH after treatment” value (FSH, LH, testosterone; both young and old men) is listed as “increases in FSH, LH” and the “Free and total testosterone after treatment” value (FSH, LH, testosterone; men, young men showing significant increases) is listed as “increases in free and total testosterone”. The “Change in serum cholesterol levels” value (serum cholesterol) was “slight increase”.
With `CCN(CC)CCOc1ccc(/C(=C(\Cl)c2ccccc2)c2ccccc2)cc1` [Enclomid, trans-clomiphene] the “Effect on total serum testosterone” value (total serum testosterone) was “significant increases in total serum testosterone”, the “Change in total serum testosterone after cessation of treatment” value (total serum testosterone; between day 12 and day 18 (washout)) was “significant drop” and the “Reduction in triglycerides (average decrease)” value (triglycerides) was 19.1%. For the same compound, the “Serum prolactin (PRL)” value (serum LH, FSH, PRL) was “decrease in serum prolactin”, the “Side effects different than placebo” value [2] was “no side effects noted” and the “Decrease in serum cholesterol levels” value (serum cholesterol) was 8%. The Platelet count (12-day treatment) was “lowering of the platelet count”, the Eosinophil counts (male baboons) was “raising the counts” and the “Lymphocytes, count and per cent” value (male baboons) was “increase”. The “Red blood cell population” value (male baboons) was “substantive effects”, the “Per cent of granulocytes in the blood” value (very strong after the 7-day washout period) was “strong effect” and the “Serum LH in the follow-up period” value (serum LH, FSH; 7-10 days after cessation of daily treatment) was “remained high”. The “Serum FSH in the follow-up period” value (serum LH, FSH; after cessation of treatment) was “remains high”, the “Serum levels of LH during treatment” value (serum LH, FSH; hypogonadal male subjects (FIG. 5)) was “statistically significant increase” and the “Serum levels of FSH during treatment” value (serum LH, FSH; hypogonadal male subjects (FIG. 6)) was “statistically significant increase”. The “Coefficient of variation (CV) of mean total testosterone” value (total testosterone; 50 mg dose, after 15 days) was 29%, the Mean total testosterone (total testosterone; 50 mg dose, after 15 days) was 589 ± 172 ng/dL and the “Mean increase in testosterone from baseline” value (from here on “Mean increase in testosterone”) (total testosterone; high dose (50 mg) oral) was 294 ng/dL. For the same compound, the “Mean increase in testosterone” value (total testosterone; low dose (12.5 mg) oral) was 169 ng/dL and the “Mean increase in testosterone” value (total testosterone; mid dose (25 mg) oral) was 247 ng/dL.
